Experimental data: PubChem BioAssay (NCI)
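48-hour exposure; five concentrations; linearly interpolated endpoints. TGI denotes the concentration required for complete inhibition of growth.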 Where a SMILES comes first, the peptide text is derived from it. [ ]: non-standard residue; d: D form. The star is where a group is joined. ξ: configuration not given here. ξW = NC(Cc1c[nH]c2ccccc12)C(=O)O; X30 = O=C(O)[C@H]1CCC[C@H]1N*; ξF = NC(Cc1ccccc1)C(=O)O; Boc = CC(C)(C)OC(=O)*; ξK = NCCCCC(N)C(=O)O; ξT = CC(O)C(N)C(=O)O; tBu = CC(C)(C)*

What was measured:
Experiment in all cases: inhibition of tumour cell growth, NCI panel, 48 h
SK-MEL-2 melanoma = test system: SK-MEL-2 melanoma
SN12C renal = test system: SN12C renal
DLD-1 colon = test system: DLD-1 colon
KM20L2 colon = test system: KM20L2 colon
DMS 114 small cell lung = test system: DMS 114 small cell lung
XF 498 CNS = test system: XF 498 CNS
HOP-18 NSCLC = test system: HOP-18 NSCLC
M19-MEL melanoma = test system: M19-MEL melanoma
SNB-78 CNS = test system: SNB-78 CNS
LXFL 529 NSCLC = test system: LXFL 529 NSCLC
DMS 273 small cell lung = test system: DMS 273 small cell lung

Row | SMILES | TGI (SK-MEL-2 melanoma) | TGI (SN12C renal) | further results
1 | O=C(/C=C/c1cccs1)c1ccc(Cl)s1 | > 100 µM | 34.8 µM | –
2 | CC1=C(c2ccc(C)cc2)NC(=S)C(C)C(c2ccc(C)cc2)=N1 (stereo not given) | – | > 100 µM | –
3 | COC(=O)CCSC1=CC(=O)c2nc3ccccc3c3ccnc1c23 | > 70.1 µM | 40.7 µM | –
4 | CCC(C)C(NC(=O)c1c2ccccc2nc2ccccc12)C(=O)O (stereo not given) | > 100 µM | > 100 µM | –
5 | COc1cc2c(cc1OC)CN1CCc3ccccc3CC1C2 (stereo not given) | > 100 µM | > 100 µM | –
6 | CC(=O)[C@]1(C)[C@H](C)O[C@](C)(CO)[C@H]1O[Si](C)(C)c1ccccc1 | > 100 µM | > 100 µM | –
7 | COC(=O)C(C(=O)C(=O)Nc1ccc([N+](=O)[O-])cc1)c1nc2cc(C)c(C)cc2[nH]c1=O (stereo not given) | – | > 100 µM | TGI (DLD-1 colon): > 100 µM; TGI (KM20L2 colon): > 100 µM; TGI (DMS 114 small cell lung): > 100 µM; TGI (XF 498 CNS): > 100 µM; TGI (HOP-18 NSCLC): > 100 µM; TGI (M19-MEL melanoma): > 100 µM; TGI (SNB-78 CNS): > 100 µM; TGI (LXFL 529 NSCLC): > 100 µM
8 | CCN(CC)c1nc(=O)c(C(=O)C(C)(C)C)c(C(C)(C)C)o1 | > 100 µM | > 100 µM | –
9 | O=C1CCCCCCCCCCC1CN(Cc1ccccc1)Cc1ccccc1 (stereo not given) | – | > 100 µM | –
10 | CC(=O)O[C@]12CCCCC1C1(O)C(O)CCCC[C@H]12 (stereo not given in full) | > 100 µM | > 100 µM | TGI (KM20L2 colon): > 100 µM; TGI (DMS 114 small cell lung): > 100 µM; TGI (DMS 273 small cell lung): > 100 µM; TGI (HOP-18 NSCLC): > 100 µM; TGI (M19-MEL melanoma): > 100 µM; TGI (SNB-78 CNS): > 100 µM; TGI (LXFL 529 NSCLC): > 100 µM
11 | C=CCN1C[C@@H](C)N([C@@H](c2ccccc2)c2ccc(C(=O)N(CC)CC)cc2)C[C@@H]1C | > 100 µM | > 100 µM | –
12 | CC(OC(C)(C)C)C(NC(=O)C(CCCCNC(=O)OC(C)(C)C)NC(=O)C(Cc1c[nH]c2ccccc12)NC(=O)C(N)Cc1ccccc1)C(=O)NC(Cc1ccccc1)C(=O)N[C@@H]1CCC[C@@H]1C(=O)O (stereo not given in full) (H-[ξF][ξW][ξK](Boc)[ξT](tBu)[ξF]-X30) | 41.5 µM | 67.2 µM | –
13 | CC(C)N(C(=O)c1ccc(NCc2cc(O)ccc2O)cc1)C(C)C | 57.9 µM | 49 µM | –
14 | CCOC(=O)c1nc2cc(C(F)(F)F)ccc2nc1Oc1ccc(C(=O)OC)cc1 | > 100 µM | > 100 µM | –
15 | O=c1c2ccccc2n2n1Cc1ccccc1C2 | – | > 100 µM | –
16 | CN1CC(S(=O)(=O)c2ccccc2)CC(S(=O)(=O)c2ccccc2)C1c1ccccc1 (stereo not given) | 20 µM | 25.7 µM | –
17 | CSC1CC2C(CC1(C)SC)C2(C)C (stereo not given) | 56.8 µM | – | TGI (DLD-1 colon): > 100 µM; TGI (DMS 273 small cell lung): > 100 µM; TGI (XF 498 CNS): 50.8 µM; TGI (M19-MEL melanoma): > 100 µM; TGI (SNB-78 CNS): > 100 µM; TGI (LXFL 529 NSCLC): > 100 µM
18 | O=C(/C=C/c1ccc(O)cc1)c1cc(O)cc(O)c1 | 34.9 µM | 28.4 µM | –
19 | O=C(Nn1c(-c2ccccc2)nc2ccccc2c1=O)c1ccc(O)cc1 | – | > 100 µM | –

Row | SMILES | TGI (SK-MEL-2 melanoma) | TGI (SN12C renal) | further results
20 | COC(=O)C1CCC[C@H]2C(CO)=C(C)C(=O)[C@@H]12 (stereo not given in full) | > 100 µM | > 100 µM | TGI (DLD-1 colon): > 100 µM; TGI (KM20L2 colon): > 100 µM; TGI (DMS 114 small cell lung): > 100 µM; TGI (DMS 273 small cell lung): > 100 µM; TGI (XF 498 CNS): > 100 µM; TGI (HOP-18 NSCLC): > 100 µM; TGI (SNB-78 CNS): > 100 µM; TGI (LXFL 529 NSCLC): > 100 µM
21 | O=C(Nc1ccc(N2C(=O)CSC2c2cccs2)cc1)c1ccc(N2C(=O)CSC2c2cccs2)cc1 (stereo not given) | > 100 µM | > 100 µM | –
22 | CCN(CC)CCNc1ccc2ncn3c4c(OC)ccc(=O)c4c(O)c1c23 | > 100 µM | > 100 µM | –
23 | CCN(CC)C(=O)N[C@@H](Cc1ccccc1)C(=O)NC | > 100 µM | > 100 µM | –
24 | N#Cc1nc(NC(=O)c2ccccc2)sc1N | > 10 µM | > 10 µM | –
25 | Cc1ccc(C(O)/C(=N/N)c2nc3ccc([N+](=O)[O-])cc3[nH]c2=O)cc1 (stereo not given) | > 100 µM | > 100 µM | TGI (DLD-1 colon): > 100 µM; TGI (KM20L2 colon): > 100 µM; TGI (DMS 114 small cell lung): > 100 µM; TGI (DMS 273 small cell lung): > 100 µM; TGI (XF 498 CNS): > 100 µM; TGI (M19-MEL melanoma): > 100 µM; TGI (SNB-78 CNS): > 100 µM; TGI (LXFL 529 NSCLC): > 100 µM
26 | COc1cc(S(=O)(=O)Nc2ccc(-c3csc(/N=C\C=C\c4ccccc4)n3)cc2)ccc1Cl | 72.3 µM | > 100 µM | –
27 | O=C1c2cscc2C(=O)c2c(OCc3ccccc3)ccc(OCc3ccccc3)c21 | – | > 100 µM | –
28 | Cc1cn(CCCCOC(=O)NC(CCCNC(N)=O)C(=O)O)c(=O)[nH]c1=O (stereo not given) | > 100 µM | > 100 µM | –
29 | O=C1C=C(NCCc2cc(Cl)c(O)c(Cl)c2)C(=O)c2[nH]cnc21 | 57.6 µM | > 100 µM | –
30 | Cc1ccc(-c2n[nH]c(=O)n2N2C(=O)C=CC2=O)cc1 | > 100 µM | > 100 µM | –
31 | Nc1ccc(-c2nc3ccc(Cc4ccc5nc(-c6ccc(N)cc6)oc5c4)cc3o2)cc1 | > 100 µM | > 100 µM | –
32 | Nc1ccc(-c2nc3ccccc3s2)cc1F | 43.4 µM | > 100 µM | –
33 | O=c1[nH]cnc2c1ncn2C1SC(CO)C(O)C1O (stereo not given) | > 100 µM | > 100 µM | –
34 | COC1CC(n2ccc(=O)[nH]c2=O)OC1CO (stereo not given) | > 100 µM | > 100 µM | –
35 | CN(C)C(=O)C(F)(F)C(c1ccc(C(F)(F)F)cc1)C1C(=O)N(C)C(=O)N(C)C1=O (stereo not given) | > 100 µM | – | –
36 | COC(=O)c1cn(CCCCO)nn1 | > 100 µM | > 100 µM | –
37 | Cc1ccc(S(=O)(=O)c2ccsc2NC(=O)c2ccccc2)cc1 | > 100 µM | > 100 µM | –
38 | NN/C(=N\S(=O)(=O)c1cccc2nsnc12)Nc1ccc(Cl)cc1 | > 100 µM | > 100 µM | –
